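Cultured in 96-well plates, cells were exposed to test compound for 48 hours across five concentrations. At the GI50, growth is halved.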 Calls of active or inactive are those of the source. Cut-off read from the data, not from the text of the source: active = GI50 up to about 1.1 µM and inactive = higher.
Legend:
Test in all cases: inhibition of tumour cell growth, NCI panel, 48 h
SNB-78 = system: SNB-78
SK-MEL-2 = system: SK-MEL-2
KM12 = system: KM12
OVCAR-4 = system: OVCAR-4
KM-20L2 = system: KM-20L2
DLD-1 = system: DLD-1
UACC-257 = system: UACC-257
HCT-15 = system: HCT-15
DMS-273 = system: DMS-273
HCC 2998 = system: HCC 2998
HOP-92 = system: HOP-92
UACC-62 = system: UACC-62
SK-OV-3 = system: SK-OV-3
SF-539 = system: SF-539
SNB-19 = system: SNB-19
MOLT-4 = system: MOLT-4
UO-31 = system: UO-31
NCI-H460 = system: NCI-H460
HCT-116 = system: HCT-116
A549 = system: A549
HT-29 = system: HT-29
NCI-H522 = system: NCI-H522
SN12C = system: SN12C
HOP-62 = system: HOP-62
OVCAR-3 = system: OVCAR-3
TK-10 = system: TK-10
M14 = system: M14
OVCAR-8 = system: OVCAR-8
LXFL 529 = system: LXFL 529
Malme-3M = system: Malme-3M
SF-295 = system: SF-295
786-0 = system: 786-0
NCI-H226 = system: NCI-H226
A498 = system: A498
K562 = system: K562
EKVX = system: EKVX
DMS-114 = system: DMS-114
LOX IMVI = system: LOX IMVI
RPMI-8226 = system: RPMI-8226
ACHN = system: ACHN
SK-MEL-28 = system: SK-MEL-28
SR = system: SR
M19-MEL = system: M19-MEL
CCRF-CEM = system: CCRF-CEM
HL-60 = system: HL-60
IGROV-1 = system: IGROV-1
HOP-18 = system: HOP-18
U-251 = system: U-251
SF-268 = system: SF-268
SNB-75 = system: SNB-75
RXF 393 = system: RXF 393
NCI-H23 = system: NCI-H23
XF498 = system: XF498
SW-620 = system: SW-620
COLO 205 = system: COLO 205
CAKI-1 = system: CAKI-1
SK-MEL-5 = system: SK-MEL-5
OVCAR-5 = system: OVCAR-5

`CCOC(=O)C(Cc1c[nH]c2cc([N+](=O)[O-])ccc12)NS(=O)(=O)c1ccc2ccccc2c1` (stereo unspecified) was tested, and the GI50 (SNB-78) was 20.7 µM (inactive), the GI50 (SK-MEL-2) was 17.4 µM (inactive) and the GI50 (KM12) was 17.1 µM (inactive). For the same molecule, the GI50 (OVCAR-4) was 10.9 µM (inactive), the GI50 (KM-20L2) was 19 µM (inactive) and the GI50 (DLD-1) was 23.7 µM (inactive). The GI50 (UACC-257) was 15.3 µM (inactive), the GI50 (HCT-15) was 18.7 µM and the GI50 (DMS-273) was 17.5 µM (inactive). The GI50 (HCC 2998) was 24.2 µM (inactive), the GI50 (HOP-92) was 19.9 µM (inactive) and the GI50 (UACC-62) was 16.7 µM (inactive). The GI50 (SK-OV-3) was 23.4 µM (inactive), the GI50 (SF-539) was 17.5 µM (inactive) and the GI50 (SNB-19) was 37.9 µM (inactive). For the same molecule, the GI50 (MOLT-4) was 26 µM (inactive), the GI50 (UO-31) was 22.8 µM (inactive) and the GI50 (NCI-H460) was 18.1 µM (inactive). The GI50 (HCT-116) was 17.2 µM (inactive), the GI50 (A549) was 30.6 µM (inactive) and the GI50 (HT-29) was 17.2 µM (inactive). The GI50 (NCI-H522) was 16.3 µM (inactive), the GI50 (SN12C) was 18.7 µM (inactive) and the GI50 (HOP-62) was 15.7 µM (inactive). The GI50 (OVCAR-3) was 16.7 µM (inactive), the GI50 (TK-10) was 26.4 µM (inactive) and the GI50 (M14) was 19 µM (inactive). For the same molecule, the GI50 (OVCAR-8) was 21.4 µM (inactive), the GI50 (LXFL 529) was 17.5 µM (inactive) and the GI50 (Malme-3M) was > 10 µM (inactive). For the same molecule, the GI50 (SF-295) was 17.3 µM (inactive), the GI50 (786-0) was 26.5 µM (inactive) and the GI50 (NCI-H226) was 16.7 µM (inactive). The GI50 (A498) was 29.2 µM (inactive), the GI50 (K562) was 18.1 µM (inactive) and the GI50 (EKVX) was 29.1 µM (inactive). For the same molecule, the GI50 (DMS-114) was 19.7 µM (inactive), the GI50 (LOX IMVI) was 17.5 µM (inactive) and the GI50 (RPMI-8226) was 22 µM (inactive). For the same molecule, the GI50 (ACHN) was 23.6 µM (inactive), the GI50 (SK-MEL-28) was 18.2 µM (inactive) and the GI50 (SR) was 17.5 µM (inactive). The GI50 (M19-MEL) was 17.2 µM (inactive), the GI50 (CCRF-CEM) was 20.1 µM (inactive) and the GI50 (HL-60) was 22.8 µM (inactive). For the same molecule, the GI50 (IGROV-1) was 21.4 µM (inactive), the GI50 (HOP-18) was 29.5 µM (inactive) and the GI50 (U-251) was 17.6 µM (inactive). The GI50 (SF-268) was 20.2 µM (inactive), the GI50 (SNB-75) was 17.1 µM (inactive) and the GI50 (RXF 393) was 14.7 µM (inactive). For the same molecule, the GI50 (NCI-H23) was 21.9 µM (inactive), the GI50 (XF498) was 17.3 µM (inactive) and the GI50 (SW-620) was 21.2 µM (inactive). The GI50 (COLO 205) was 18 µM (inactive).
For `O=c1cnn2c(n1)sc1ccc3ccccc3c12`, the GI50 (CAKI-1) was > 100 µM (inactive), the GI50 (SNB-78) was > 100 µM (inactive) and the GI50 (SK-MEL-2) was > 100 µM (inactive). The GI50 (KM12) was > 100 µM (inactive), the GI50 (OVCAR-4) was > 100 µM (inactive) and the GI50 (KM-20L2) was > 100 µM (inactive). The GI50 (DLD-1) was > 100 µM (inactive), the GI50 (UACC-257) was > 100 µM (inactive) and the GI50 (HCT-15) was over 100 µM. For the same molecule, the GI50 (SK-MEL-5) was > 100 µM (inactive), the GI50 (DMS-273) was > 100 µM (inactive) and the GI50 (HCC 2998) was > 100 µM (inactive). The GI50 (HOP-92) was > 100 µM (inactive), the GI50 (UACC-62) was > 100 µM (inactive) and the GI50 (SK-OV-3) was > 100 µM (inactive). The GI50 (SF-539) was > 100 µM (inactive), the GI50 (SNB-19) was > 100 µM (inactive) and the GI50 (MOLT-4) was 30.1 µM (inactive). For the same molecule, the GI50 (UO-31) was > 100 µM (inactive), the GI50 (NCI-H460) was 61.2 µM (inactive) and the GI50 (HCT-116) was 87.9 µM (inactive). For the same molecule, the GI50 (A549) was 65.6 µM (inactive), the GI50 (HT-29) was > 100 µM (inactive) and the GI50 (SN12C) was > 100 µM (inactive). For the same molecule, the GI50 (HOP-62) was 98.9 µM (inactive), the GI50 (OVCAR-3) was > 100 µM (inactive) and the GI50 (TK-10) was > 100 µM (inactive). For the same molecule, the GI50 (M14) was > 100 µM (inactive), the GI50 (OVCAR-8) was > 100 µM (inactive) and the GI50 (LXFL 529) was > 100 µM (inactive). The GI50 (Malme-3M) was > 100 µM (inactive), the GI50 (SF-295) was > 100 µM (inactive) and the GI50 (786-0) was > 100 µM (inactive). For the same molecule, the GI50 (NCI-H226) was > 100 µM (inactive), the GI50 (K562) was > 100 µM (inactive) and the GI50 (EKVX) was 25.1 µM (inactive). The GI50 (DMS-114) was > 100 µM (inactive), the GI50 (LOX IMVI) was 76.6 µM (inactive) and the GI50 (RPMI-8226) was > 100 µM (inactive). The GI50 (ACHN) was > 100 µM (inactive), the GI50 (SK-MEL-28) was > 100 µM (inactive) and the GI50 (OVCAR-5) was > 100 µM (inactive). For the same molecule, the GI50 (SR) was 59.4 µM (inactive), the GI50 (M19-MEL) was > 100 µM (inactive) and the GI50 (CCRF-CEM) was 63.5 µM (inactive). For the same molecule, the GI50 (HL-60) was 83.9 µM (inactive), the GI50 (IGROV-1) was > 100 µM (inactive) and the GI50 (HOP-18) was > 100 µM (inactive). The GI50 (U-251) was > 100 µM (inactive), the GI50 (SF-268) was > 100 µM (inactive) and the GI50 (SNB-75) was > 100 µM (inactive). For the same molecule, the GI50 (RXF 393) was > 100 µM (inactive), the GI50 (NCI-H23) was > 100 µM (inactive) and the GI50 (XF498) was > 100 µM (inactive). The GI50 (SW-620) was > 100 µM (inactive) and the GI50 (COLO 205) was > 100 µM (inactive).
